EC50 data for 37 molecules are collected here from patent US9120779B2, “Inhibitors of HCV NS5A” (PRESIDIO PHARMACEUTICALS, INC., priority 2008, dated 2015).

For one assay, the system named is HCV genotype 1b replicon in Huh 7 cells. As to the kind of experiment: HCV replicon assay (luciferase readout, 1b_Huh-Luc/Neo-ET cell line). The assay is classed as cell-based. As to conditions: Hepatitis C virus, Huh-7, 72 h, read-out: Inhibition of HCV genotype 1b, Table 1, 72 h incubation. The method in brief:
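Inhibition expressed as percent of untreated control luciferase signal and fitted to a Hill-slope equation for EC50, with repeat determinations. Compounds were added in triplicate to Huh 7 cells stably expressing the genotype 1b luciferase replicon, with 72 h exposure.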
With `COC(=O)N[C@@H](C(=O)N1CCC[C@H]1c1ncc(C2CCC(c3ccc(-c4cnc([C@@H]5CCCN5C(=O)[C@@H](c5ccccc5)N5CCOCC5)[nH]4)cc3)CC2)[nH]1)c1ccccc1` (stereo partly shown) [compound 378], the EC50 was less than 1 nM.
On the same count and under the same terms, as for `COC(=O)N[C@H](C(=O)N1CCC[C@H]1c1ncc(-c2ccc([C@H]3CC[C@H](c4cnc([C@@H]5CCCN5C(=O)[C@@H](NC(=O)OC5CCOCC5)C(C)C)[nH]4)CC3)cc2)[nH]1)C(C)C` [compound 945], the figure is less than 1 nM.
As for `CC(C)(C)OC(=O)N[C@@H](C(=O)N1CCC[C@H]1C(=O)N[C@H]1CC[C@H](c2cccc(-c3cnc([C@@H]4CCCN4C(=O)[C@H](NC(=O)OC(C)(C)C)c4ccccc4)[nH]3)c2)CC1)c1ccccc1` [compound 362], the EC50 was in the range of 1 to 9.9 nM.
Take `COC(=O)N[C@H](C(=O)N1CCC[C@H]1c1ncc(-c2ccc([C@H]3CC[C@H](c4cnc([C@@H]5CCCN5C(=O)[C@@H](NC(=O)OC)[C@@H](C)OC)[nH]4)CC3)cc2)[nH]1)[C@@H](C)OC` [compound 388]: the EC50 was less than 1 nM.
On the same count and under the same terms, as for `CC(C)[C@H](NC(=O)OC(C)(C)C)C(=O)N1CCC[C@H]1c1ncc(-c2ccc([C@H]3CC[C@H](c4cnc([C@@H]5CCCN5C(=O)[C@@H](NC(=O)OC(C)(C)C)C(C)C)[nH]4)CC3)cc2)[nH]1` [compound 383], the figure is 10 to 999 nM.
As to `CN(C)[C@@H](C(=O)N1CCC[C@H]1c1ncc(C2CCC(c3ccc(-c4cnc([C@@H]5CCCN5C(=O)[C@H](NC(=O)C5CC5)c5ccccc5)[nH]4)cc3)CC2)[nH]1)c1ccccc1` (stereo partly shown) [compound 380], the EC50 was less than 1 nM.
Take `CC(C)(C)OC(=O)N[C@@H](C(=O)N1CCC[C@H]1C(=O)N[C@H]1CC[C@@H](c2cccc(-c3cnc([C@@H]4CCCN4C(=O)[C@H](NC(=O)OC(C)(C)C)c4ccccc4)[nH]3)c2)CC1)c1ccccc1` [compound 363]: the EC50 is less than 1 nM.
On to `CC[C@H](C)[C@H](NC(=O)OC)C(=O)N1CCC[C@H]1c1ncc(-c2ccc([C@H]3CC[C@H](c4cnc([C@@H]5CCCN5C(=O)[C@@H](NC(=O)OC)[C@@H](C)CC)[nH]4)CC3)cc2)[nH]1` [compound 943], for which the EC50 is less than 1 nM.
For the molecule `CC(C)[C@H](NC(=O)OC(C)(C)C)C(=O)N1CCC[C@H]1c1ncc(-c2ccc([C@H]3CC[C@@H](c4cnc([C@@H]5CCCN5C(=O)[C@@H](NC(=O)OC(C)(C)C)C(C)C)[nH]4)CC3)cc2)[nH]1` [compound 384], the EC50 was in the range of 10 to 999 nM.

Staying with this assay, now noted: Hepatitis C virus, Huh-7, 72 h, read-out: Inhibition of HCV genotype 1b, Table 3, 72 h incubation.
For the molecule `COC(=O)N[C@H](C(=O)N1CCC[C@H]1c1ncc(-c2cc(F)c(N3CCC(c4cnc([C@@H]5CCCN5C(=O)[C@@H](NC(=O)OC)C(C)C)[nH]4)CC3)c(F)c2)[nH]1)C(C)C` [compound 499], the EC50 was less than 1 nM.
As to `C[C@H](NC(=O)[C@H](NC(=O)OC(C)(C)C)c1ccccc1)c1ncc(C2CCN(c3c(F)cc(-c4cnc([C@@H]5CCCN5C(=O)[C@H](NC(=O)OC(C)(C)C)c5ccccc5)[nH]4)cc3F)CC2)[nH]1` [compound 513], the EC50 is less than 1 nM.
Turning to `C[C@H](NC(=O)[C@H](NC(=O)C1CC1)c1ccccc1)c1ncc(C2CCN(c3c(F)cc(-c4cnc([C@@H]5CCCN5C(=O)[C@H](NC(=O)C5CC5)c5ccccc5)[nH]4)cc3F)CC2)[nH]1` [compound 514], the EC50 was less than 1 nM.
As to `COC(=O)N[C@H](C(=O)N1CCCC[C@H]1c1ncc(C2CCN(c3c(F)cc(-c4cnc([C@@H]5CCCN5C(=O)[C@H](NC(=O)OC)c5ccccc5)[nH]4)cc3F)CC2)[nH]1)C(C)C` [compound 500], the EC50 is less than 1 nM.
Take `COC(=O)N[C@@H](C(=O)N1CCOC[C@H]1c1ncc(C2CCN(c3c(F)cc(-c4cnc([C@@H]5CCCN5C(=O)[C@H](NC(=O)OC(C)(C)C)c5ccccc5)[nH]4)cc3F)CC2)[nH]1)c1ccccc1` [compound 497]: the EC50 was less than 1 nM.
For the molecule `COC(=O)N[C@@H](C(=O)N1CCC[C@H]1c1ncc(C2CCN(c3c(F)cc(-c4cnc([C@@H]5CCCN5C(=O)[C@H](NC(=O)C5CC5)c5ccccc5)[nH]4)cc3F)CC2)[nH]1)c1ccccc1` [compound 480], the EC50 was less than 1 nM.
With `O=C(NC1CCN(c2ccc(-c3cnc([C@@H]4CCCN4C(=O)[C@H](NC(=O)N4CCOCC4)c4ccccc4)[nH]3)cc2F)CC1)[C@@H]1CCCN1C(=O)[C@H](NC(=O)N1CCOCC1)c1ccccc1` [compound 455], the EC50 was 1 to 9.9 nM.
For the molecule `COC(=O)N[C@@H](C(=O)N1CCC[C@H]1c1ncc(-c2cc(F)c(N3CCC(c4cnc([C@@H]5CCCN5C(=O)[C@H](NS(=O)(=O)C5CC5)c5ccccc5)[nH]4)CC3)c(F)c2)[nH]1)c1ccccc1` [compound 477], the EC50 is less than 1 nM.

Staying with this assay, now noted: Hepatitis C virus, Huh-7, 72 h, read-out: Inhibition of HCV genotype 1b, Table 4, 72 h incubation.
Turning to `COC(=O)N[C@H](C(=O)N1CCC[C@H]1c1nc2ccc(-c3ccc(-c4ccc5nc([C@H](C)NC(=O)[C@H](C(C)C)N(C)C)[nH]c5c4)cc3)cc2[nH]1)C(C)C` [compound 935], the EC50 was less than 1 nM.
For the molecule `COC(=O)N[C@H](C(=O)N1CCC[C@H]1c1nc2ccc(-c3ccc(-c4ccc5nc([C@H](C)NC(=O)[C@@H](c6ccccc6)N(C)C)[nH]c5c4)cc3)cc2[nH]1)C(C)C` [compound 939], the EC50 is less than 1 nM.
Turning to `COC(=O)N[C@@H](C(=O)N1CCC[C@H]1c1nc2ccc(-c3ccc(-c4ccc5nc([C@@H]6CCCN6C(=O)[C@H](NC(=O)OC)C(C)C)[nH]c5c4)cc3)cc2[nH]1)C(C)C` [compound 2035], the EC50 lay in the range of 10 to 999 nM.
With `COC(=O)N[C@H](C(=O)N1CCC[C@H]1c1nc2ccc(-c3cnc(-c4ccc5nc([C@@H]6CCCN6C(=O)[C@@H](NC(=O)OC)C(C)C)[nH]c5c4)cn3)cc2[nH]1)C(C)C` [compound 2036], the EC50 was less than 1 nM.
Turning to `O=C(N[C@@H](C(=O)N1CCC[C@H]1c1nc2ccc(-c3ccc(-c4ccc5nc([C@@H]6CCCN6C(=O)[C@H](NC(=O)C6CC6)c6ccccc6)[nH]c5c4)cc3)cc2[nH]1)c1ccccc1)C1CC1` [compound 930], the EC50 was less than 1 nM.

The same assay, now with this note: Hepatitis C virus, Huh-7, 72 h, read-out: Inhibition of HCV genotype 1b, Table 5, 72 h incubation.
Take `CC(C)(C)OC(=O)N[C@@H](C(=O)N1CCC[C@H]1CNC(=O)C12CCC(c3ccc(-c4cnc([C@@H]5CCCN5C(=O)[C@H](NC(=O)OC(C)(C)C)c5ccccc5)[nH]4)cc3)(CC1)CC2)c1ccccc1` [compound 600]: the EC50 was 1 to 9.9 nM.
Consider `COC(=O)N[C@H](C(=O)N1CCC[C@H]1c1ncc(-c2ccc(C34CCC(c5cnc([C@@H]6CCCN6C(=O)[C@@H](NC(=O)N6CCC(O)CC6)C(C)C)[nH]5)(CC3)CC4)cc2)[nH]1)C(C)C` [compound 2059], for which the EC50 was less than 1 nM.
For `COC(=O)N[C@H](C(=O)N1CCC[C@H]1c1ncc(-c2ccc(C34CCC(c5cnc([C@@H]6CCCN6C(=O)[C@H](NC6CCOCC6)c6ccccc6)[nH]5)(CC3)CC4)cc2)[nH]1)C(C)C` [compound 2064], the EC50 is less than 1 nM.
`COC(=O)N[C@@H](C)C(=O)N1CCC[C@H]1c1ncc(C23CCC(c4ccc(-c5cnc([C@@H]6CCCN6C(=O)[C@@H](NC(=O)OC)C(C)C)[nH]5)cc4)(CC2)CC3)[nH]1` [compound 2061]: the EC50 is less than 1 nM.
Still for that read-out and setting: as for `COC(=O)N[C@H](C(=O)N1CCC[C@H]1c1ncc(C23CCC(c4ccc(-c5cnc([C@@H]6CCCN6C(=O)[C@H](NC(=O)OC)c6ccccc6)[nH]5)cc4)(CC2)CC3)[nH]1)[C@@H](C)OC` [compound 609], the figure is less than 1 nM.
On the same count and under the same terms, as for `COC(=O)N[C@@H](C(=O)N1CCC[C@H]1c1ncc(C23CCC(c4ccc(-c5cnc([C@@H]6CCCN6C(=O)[C@@H](c6ccccc6)N(C)C)[nH]5)cc4)(CC2)CC3)[nH]1)c1ccccc1` [compound 622], the figure is less than 1 nM.
Regarding `COC(=O)N[C@H](C(=O)N1CCC[C@H]1c1ncc(-c2ccc(C34CCC(c5cnc([C@@H]6CCCN6C(=O)[C@@H](NC(=O)OC)C(C)C)[nH]5)(CC3)CC4)cc2)[nH]1)C(C)C` [compound 627], the EC50 was less than 1 nM.
In the case of `COC(=O)N[C@@H](CC(C)C)C(=O)N1CCC[C@H]1c1ncc(-c2ccc(C34CCC(c5cnc([C@@H]6CCCN6C(=O)[C@@H](NC(=O)OC)C(C)C)[nH]5)(CC3)CC4)cc2)[nH]1` [compound 2072], the EC50 is less than 1 nM.
For `CC(C)[C@H](NC(=O)N1CCC(C)(O)CC1)C(=O)N1CCC[C@H]1c1ncc(-c2ccc(C34CCC(c5cnc([C@@H]6CCCN6C(=O)[C@@H](NC(=O)N6CCC(C)(O)CC6)C(C)C)[nH]5)(CC3)CC4)cc2)[nH]1` [compound 634], the EC50 is less than 1 nM.
The same measure, in the same setting: the result for `COC(=O)N[C@H](C(=O)N1CCC[C@H]1c1ncc(C23CCC(c4ccc(-c5cnc([C@@H]6CCCN6C(=O)[C@H](C(C)C)N(C)C(=O)OC)[nH]5)cc4)(CC2)CC3)[nH]1)C(C)C` [compound 912] reads less than 1 nM; that for `COC(=O)N[C@H](C(=O)N1CCC[C@H]1c1ncc(C23CCC(c4ccc(-c5cnc([C@@H]6CCCN6C(=O)[C@H](NC(=O)OC)c6ccccc6)[nH]5)cc4)(CC2)CC3)[nH]1)C(C)C` [compound 617], less than 1 nM.
Consider `COC(=O)N[C@@H](C(=O)N1CCC[C@H]1c1ncc(C23CCC(c4ccc(-c5cnc([C@@H]6CCCN6C(=O)[C@@H](c6ccccc6)N6CCCC6)[nH]5)cc4)(CC2)CC3)[nH]1)c1ccccc1` [compound 623], for which the EC50 is less than 1 nM.

The assay is the same for the next values; noted with them: Hepatitis C virus, Huh-7, 72 h, read-out: Inhibition of HCV genotype 1b, Table 6, 72 h incubation.
Take `COC(=O)N[C@H](C(=O)N1CCC[C@H]1c1nc2ccc(-c3ccc4nc([C@@H]5CCCN5C(=O)[C@@H](NC(=O)OC)C(C)C)[nH]c4c3)cc2[nH]1)C(C)C` [Compound 850]: the EC50 is less than 1 nM.

Staying with this assay, now noted: Hepatitis C virus, Huh-7, 72 h, read-out: Inhibition of HCV genotype 1b, Table 9, 72 h incubation.
With `COC(=O)N[C@@H](C(=O)N1CCC[C@H]1c1nc(-c2ccc(/C=C/c3ccc(-c4cnc([C@@H]5CCCN5C(=O)[C@H](NC(=O)OC)c5ccccc5)[nH]4)cc3)cc2)c[nH]1)c1ccccc1` [Compound 2120], the EC50 was less than 1 nM.

Still in this assay, the particulars now being: read-out: Inhibition of HCV genotype 1b, Table 5, 72 h incubation.
Regarding `COC(=O)N[C@H](C(=O)N1CCC[C@H]1c1ncc(-c2ccc(C34CCC(c5cnc([C@@H]6CCCN6C(=O)[C@@H](NC(=O)N6CCOCC6)C(C)C)[nH]5)(CC3)CC4)cc2)[nH]1)C(C)C` [compound 636], the EC50 is less than 1 nM.
